{"source": "paper PMC5114585", "about": "“Tomato FK506 Binding Protein 12KD (FKBP12) Mediates the Interaction between Rapamycin and Target of Rapamycin (TOR)” (Frontiers in Plant Science, 2016)", "biological_target": "T1, SlFKBP12 (Solanum lycopersicum, UniProt A0A3Q7ERC2)", "T1 construct": "gene FKBP12", "T1 sequence (A0A3Q7ERC2 1-112)": "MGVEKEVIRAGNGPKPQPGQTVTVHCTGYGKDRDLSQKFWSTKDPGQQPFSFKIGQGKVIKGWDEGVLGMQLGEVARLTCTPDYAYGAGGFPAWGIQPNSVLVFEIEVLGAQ", "assay": "protein gel shifting assay: native vs denatured extracts of treated seedlings, anti-HA immunoblot", "conditions": "0, 1, 5, 10 uM rapamycin for 24 h on seedlings; indirect read-out of ternary FKBP12-rapamycin-TOR complex (host Arabidopsis TOR)", "data": [{"compound": "CO[C@H]1C[C@@H]2CC[C@@H](C)[C@@](O)(O2)C(=O)C(=O)N2CCCC[C@H]2C(=O)O[C@H]([C@H](C)C[C@@H]2CC[C@@H](O)[C@H](OC)C2)CC(=O)[C@H](C)/C=C(\\C)[C@@H](O)[C@@H](OC)C(=O)[C@H](C)C[C@H](C)/C=C/C=C/C=C/1C", "note": "[rapamycin]", "values": [{"measurement": "protein gel shifting assay: native vs denatured extracts of treated seedlings, a", "result": "with increasing of rapamycin, SlFKBP12 protein level displayed a decline trend in native stage"}]}]}
